Consider five molecules from US10265318B2, “Medicinal drug with activity against gram positive bacteria, mycobacteria and fungi” (priority 2015, dated 2019).

Each structure is given as a SMILES string.

For experiment [1], the system named is biofilms of S. aureus MRSA 201/010. Briefly: 24-hour action upon 24-hour biofilms in 96-well plates, CFU count. Conditions: S. aureus MRSA 201/010 biofilm.
From the text: (§1) Biofilms used in testing were produced by 24-hour cultivation in 96-well plates.
The next experiment deals with MSSA strain ATCC 29213. Briefly: MIC, broth macrodilution (CLSI). Conditions: planktonic, inoculum 10^5 cfu/mL. It counts as cell-based, S. aureus.
Experiment [2] has as its system biofilms of S. aureus ATCC 29213. Briefly: 24-hour action upon 24-hour biofilms in 96-well plates, CFU count. The settings on record: S. aureus ATCC 29213 biofilm.
From the text: as §1
The next experiment has as its system VRSA strain VT-E-25. Briefly: MIC, broth macrodilution (CLSI). The settings on record: planktonic, inoculum 10^5 cfu/mL.
Another experiment relates to VRSA strain VT-A-199. Briefly: MIC, broth macrodilution (CLSI). The settings on record: planktonic, inoculum 10^5 cfu/mL.
The subject of the next experiment is VRSA strain VT-V-18. Briefly: MIC, broth macrodilution (CLSI). The settings on record: planktonic, inoculum 10^5 cfu/mL.
Experiment [3] deals with biofilms of S. aureus MRSA 24/31. Briefly: 24-hour action upon 24-hour biofilms in 96-well plates, CFU count. Conditions: S. aureus MRSA 24/31 biofilm.
From the text: as §1
The test system of the next experiment is bacteria and fungi. Briefly: Antimicrobial activity, overall comparison of the substances. In kind it is cell-based.
The test system of experiment [4] is Aspergillus fumigatus ATCC 204305. Briefly: MIC, broth microdilution or agar dilution (CLSI). The settings on record: A. fumigatus ATCC 204305. It counts as cell-based. On the technique in general: Broth dilution looks for growth in wells or tubes with falling amounts of substance.
A further experiment deals with S. aureus MRSA 24/31. Briefly: MIC, broth microdilution or agar dilution (CLSI). It counts as cell-based, Staphylococcus aureus.
The test system of another experiment is S. aureus MRSA 201/010. Briefly: MIC, broth microdilution or agar dilution (CLSI). In kind it is cell-based, Staphylococcus aureus.
Experiment [5] has as its system Candida albicans ATCC 10231. Briefly: MIC, broth microdilution or agar dilution (CLSI). In kind it is cell-based. Conditions: C. albicans ATCC 10231.

Method for VRSA strain VT-A-199: (§2) The MICs were determined using a broth macrodilution method with cation-adjusted Mueller-Hinton broth II (Becton Dickinson) at standard inoculum (10^5 cfu/mL) following the CLSI recommendations.
Method for VRSA strain VT-E-25: as §2
Method for VRSA strain VT-V-18: as §2

`O=C1NC(=O)C(=Cc2cc(Br)cc(Br)c2O)C(=O)N1` [Compound 1, 5-(3,5-dibromo-2-hydroxybenzylidene) perhydropyrimidine-2.4,6-trione]: the “decrease of the number of CFU in biofilm” value in [1] (24-hour action), in [2] (24-hour action) and in experiment [3] (24-hour action) was 10,000 times in each case. Moreover, in the experiment on MSSA strain ATCC 29213, the “MSSA strain MIC, ATCC 29213” value was 0.7 µg/mL. For the same molecule, the “VRSA strain MIC, VT-E-25” value with VRSA strain VT-E-25 is recorded as 1.5 μg/ml. In the experiment with VRSA strain VT-A-199, the “VRSA strain MIC, VT-A-199” value came out at 0.07 µg/mL. Moreover, the “VRSA strain MIC, VT-V-18” value with VRSA strain VT-V-18 was determined as 0.7 µg/mL. Besides, in the experiment with bacteria and fungi, the “antimicrobial activity, comparison among the inventive substances” value (“antimicrobial activity” for short) is reported as “best activity”.

Regarding `COc1ccc(CN2C(=O)NC(=O)C(=Cc3cc(Br)cc(Br)c3O)C2=O)cc1` [Compound 15, 1-(4-methoxybenzyl)-5-(3,5-dibromo-2-hydroxybenzylidene) perhydropyrimidine-2.4,6-trione], the “antimicrobial activity” value in the experiment with bacteria and fungi is “best activity”.

Regarding `O=Cc1cc(Br)cc(Br)c1[O-].[Na+]` [Compound 17, 2-formyl-4,6-dibromo sodium phenolate], in the experiment on bacteria and fungi, the “antimicrobial activity” value was “best activity”.

Regarding `O=Cc1cc(Br)cc([N+](=O)[O-])c1[O-].[K+]` [Compound 19, 2-formyl-4-bromo-6-nitro potassium phenolate], in the experiment on bacteria and fungi, the “antimicrobial activity” value is listed as “best activity”.

As to `CC1(C)SC2C(NC(=O)[C@H](N)c3ccccc3)C(=O)N2C1C(=O)O` (stereo partly drawn) [ampicillin, 6-[[(2R)-aminophenylacetyl]amino]-3,3-dimethyl-7-oxo-4-thia-1-azabicyclo[3.2.0]heptane-2carboxylic acid], the MIC result (in [4]; in the experiment on S. aureus MRSA 24/31; with S. aureus MRSA 201/010; in experiment [5]) was “no effect” throughout. For the same molecule, the “effect on the number of CFU in biofilm” value in [1] (10 mg/l) and in [3] (10 mg/l) was “no effect whatsoever” throughout. The “decrease of the number of CFU in biofilm” value in experiment [2] (10 mg/l) was 10 times.
